Measurements as given in patent publication US20120015906A1, “USES OF BORTEZOMIB IN PREDICTING SURVIVAL IN MULTIPLE MYELOMA PATIENTS” (priority 2009, published 2012).

Key:
Type in all cases: in vivo, human
proteasome proteins = test: Mass spectrometry of proteasome proteins after bortezomib; conditions: mass spectroscopy, protein level
Description: Representative examples of proteasome up-regulation after bortezomib at both the RNA and protein levels are depicted.
For further validation of GEP-derived data, the effects of bortezomib on proteasome proteins was also investigated by mass spectroscopy, (FIG. 8A). Representative examples of proteasome up-regulation after bortezomib at both the RNA and protein levels are depicted in FIG. 8A-8B.

[1] = test system: CD138-purified plasma cells; test: Gene expression profiling of plasma cells prior to and 48 hr after bortezomib test-dose; conditions: for Mean log2 Expression Change / Mean log2 Expression Change, Average: 48 hr after test-dose vs baseline
Description: Pharmacogenomic (PG) studies were performed as part of two TT3 trials (2003-33, n=303; 2006-66, n=177), obtaining plasma cells prior to and 48 hr after a bortezomib test-dose (1.0 mg/m2), which was accomplished in 142 patients receiving 2003-33 (training set) and […] receiving 2006-66 (test set). […] A continuous risk score was calculated and an optimal cut-point for event-free survival separation determined. The independent prognostic power of the binary risk score was tested in 2006-66. Multivariate analyses (MV) were employed to determine the role of post-bortezomib risk in relationship to standard prognostic variables and 70-gene baseline risk model.
The details of Total Therapy 3 are known in the art. In brief, protocol 2003-33 enrolled 303 newly diagnosed patients with myeloma into a tandem transplantation program, employing 2 cycles each of induction chemotherapy with VTD-PACE (bortezomib, thalidomide, dexamethasone; 4-day continuous infusions of cisplatin, doxorubicine, cyclophosphamide, etoposide) prior to and after melphalan-based transplantation, followed by VTD maintenance. A pharmaco-genomic aspect of the protocol called for gene expression profiling analyses of CD138-purified plasma cells obtained prior to and 48 hr following a test-dose application of bortezomib (1.0 mg/m2). The observation of prognostic consequences of bortezomib-induced gene expression profiling alterations provided the rationale for accrual of an additional 177 patients to an extension TT3 protocol, 2006-66, in order to validate the pharmaco-genomic data generated in the 2003-33 trial. Gene expression profiling baseline data were available in 275 and 169 patients entered on 2003-33 and 2006-66, respectively, 142 and 128 of whom had paired samples at baseline and 48 hr after test-dosing.
Multiple myeloma plasma cells were purified from bone marrow aspirates prior to and 48 hr following in vivo exposure to 1.0 mg/m2 of bortezomib in 142 of 303 patients enrolled in UARK2003-33 and 128 of 177 accrued to UARK2006-66. RNA was isolated from tumor cells and run on Affymetrix U133Plus2.0 microarrays. Multiple myeloma plasma cells were isolated from heparinized bone marrow (BM) aspirates using CD138-based immunomagnetic bead selection using the Miltenyi AutoMacs device (Miltenyi, Bergisch Gladbach, Germany). Peripheral Blood mononuclear cells were obtained through Ficoll gradient centrifugation. RNA purification, cDNA synthesis, cRNA preparation, and hybridization to the Human Genome U133Plus 2.0 GeneChip microarrays (Affymetrix, Santa Clara, Calif.) were performed.
The Affymetrix U133Plus2.0 microarrays were preprocessed and normalized with MAS5.0 software. […] Each of these 1051 genes was then correlated with event-free survival in a Cox regression model and ranked the genes by p-values. In order to explore the various potential survival implications, two sets of covariates were considered in the Cox model for each gene: a) percent change at 48 hr compared to the baseline expression, and b) 48 hr expression.

proteasome genes = test: Proteasome gene expression changes after short-term exposure (test-dosing) to bortezomib, dexamethasone, thalidomide, melphalan; conditions: test-dosing in myeloma patients
Description: In earlier studies, pharmacogenomics was used to identify genes altered by short-term exposure of therapy-naïve cases to thalidomide and dexamethasone. Little to no overlap was found in the genes altered by these agents with those altered by bortezomib.

Structure (SMILES): CC(C)C[C@H](NC(=O)[C@H](Cc1ccccc1)NC(=O)c1cnccn1)B(O)O [bortezomib]
- proteasome proteins after bortezomib (proteasome proteins): up-regulation
- Mean log2 Expression Change ([1]; ACVR1C 1552519_at): −0.17
- Mean log2 Expression Change ([1]; ALDOA 238996_x_at): 0.36
- Mean log2 Expression Change ([1]; ANKRD37 242548_x_at): −0.39
- Mean log2 Expression Change ([1]; BIRC5 210334_x_at): −0.35
- Mean log2 Expression Change ([1]; C1orf31 225638_at): 0.18
- Mean log2 Expression Change ([1]; C1orf128 229856_s_at): −0.32
- Mean log2 Expression Change ([1]; C9orf130 227893_at): 0.16
- Mean log2 Expression Change ([1]; C14orf100 223215_s_at): 0.12
- Mean log2 Expression Change ([1]; C17orf60 217513_at): 0.32
- Mean log2 Expression Change ([1]; CHORDC1 218566_s_at): 0.15
- Mean log2 Expression Change ([1]; CISH 221223_x_at): −0.20
- Mean log2 Expression Change ([1]; CISH 223377_x_at): −0.18
- Mean log2 Expression Change ([1]; CISH 223961_s_at): −0.32
- Mean log2 Expression Change ([1]; COMMD8 218351_at): 0.16
- Mean log2 Expression Change ([1]; COPS5 201652_at): 0.12
- Mean log2 Expression Change ([1]; COX6C 201754_at): 0.12
- Mean log2 Expression Change ([1]; CRYGS 223643_at): −0.18
- Mean log2 Expression Change ([1]; ENSA 202596_at): 0.12
- Mean log2 Expression Change ([1]; FLNA 214752_x_at): 0.18
- Mean log2 Expression Change ([1]; FOSB 202768_at): −0.54
- Mean log2 Expression Change ([1]; FUNDC1 235346_at): 0.13
- Mean log2 Expression Change ([1]; GABARAPL1 208869_s_at): 0.20
- Mean log2 Expression Change ([1]; HIST1H3B 208576_s_at): 0.40
- Mean log2 Expression Change ([1]; HNRPC 200014_s_at): 0.11
- Mean log2 Expression Change ([1]; HNRPC 212626_x_at): 0.16
- Mean log2 Expression Change ([1]; K1AA1394 228984_at): −0.29
- Mean log2 Expression Change ([1]; K1AA1754 225582_at): −0.14
- Mean log2 Expression Change ([1]; KLHL7 223250_at): 0.09
- Mean log2 Expression Change ([1]; LAP3 217933_s_at): 0.15
- Mean log2 Expression Change ([1]; LAPTM4A 200673_at): 0.12
- Mean log2 Expression Change ([1]; LOC400657 226924_at): 0.11
- Mean log2 Expression Change ([1]; LOC643318 1557633_at): −0.29
- Mean log2 Expression Change ([1]; LOC644250 230292_at): −0.34
- Mean log2 Expression Change ([1]; LZTR2 1564423_a_at): −0.23
- Mean log2 Expression Change ([1]; MGC61598 226499_at): −0.29
- Mean log2 Expression Change ([1]; MRPL47 223480_s_at): 0.09
- Mean log2 Expression Change ([1]; NMT1 201157_s_at): 0.12
- Mean log2 Expression Change ([1]; NOLA1 219110_at): 0.11
- Mean log2 Expression Change ([1]; NR4A1 202340_x_at): −0.79
- Mean log2 Expression Change ([1]; NXT2 209628_at): 0.13
- Mean log2 Expression Change ([1]; PDE4B 203708_at): −0.25
- Mean log2 Expression Change ([1]; PDE4B 211302_s_at): −0.28
- Mean log2 Expression Change ([1]; PDE4B 215671_at): −0.42
- Mean log2 Expression Change ([1]; PSMA4 203396_at): 0.14
- Mean log2 Expression Change ([1]; PSMA7 201114_x_at): 0.21
- Mean log2 Expression Change ([1]; PSMB2 200039_s_at): 0.17
- Mean log2 Expression Change ([1]; PSMB3 201400_at): 0.13
- Mean log2 Expression Change ([1]; PSMB4 202243_s_at): 0.19
- Mean log2 Expression Change ([1]; PSMB4 202244_at): 0.15
- Mean log2 Expression Change ([1]; PSMB7 200786_at): 0.15
- Mean log2 Expression Change ([1]; PSMC4 201252_at): 0.16
- Mean log2 Expression Change ([1]; PSMC5 209503_s_at): 0.17
- Mean log2 Expression Change ([1]; PSMD2 200830_at): 0.13
- Mean log2 Expression Change ([1]; PSMD4 200882_s_at): 0.19
- Mean log2 Expression Change ([1]; PSMD4 210460_s_at): 0.19
- Mean log2 Expression Change ([1]; PSMD4 211609_x_at): 0.20
- Mean log2 Expression Change ([1]; PSMD14 212296_at): 0.23
- Mean log2 Expression Change ([1]; RBM33 238801_at): −0.26
- Mean log2 Expression Change ([1]; RPL41 216215_s_at): −0.16
- Mean log2 Expression Change ([1]; SLC25A14 204587_at): −0.10
- Mean log2 Expression Change ([1]; SNRPD1 202690_s_at): 0.11
- Mean log2 Expression Change ([1]; STAU2 229417_at): 0.22
- Mean log2 Expression Change ([1]; STAU2 233909_at): −0.40
- Mean log2 Expression Change ([1]; STX11 235670_at): −0.14
- Mean log2 Expression Change ([1]; SUMO1 211069_s_at): 0.10
- Mean log2 Expression Change ([1]; TAGAP 1552542_s_at): −0.19
- Mean log2 Expression Change ([1]; TBC1D9 212960_at): −0.19
- Mean log2 Expression Change ([1]; TMC8 236554_x_at): 0.24
- Mean log2 Expression Change ([1]; TUBA6 209251_x_at): 0.12
- Mean log2 Expression Change ([1]; UBPH 205687_at): 0.16
- Mean log2 Expression Change ([1]; WIRE 212050_at): −0.10
- Mean log2 Expression Change ([1]; ZNF710 213658_at): −0.12
- Mean log2 Expression Change, Average ([1]; average of the Bad Genes): 0.13
- Mean log2 Expression Change, Average ([1]; average of the Good Genes): −0.16
- average expression decrease of the good genes from baseline to post-bortezomib ([1]; high-risk group): 1.22 fold
- average expression increase of the bad genes from baseline to post-bortezomib ([1]; high-risk group): 1.21 fold
- average expression decrease of the good genes from baseline to post-bortezomib ([1]; low-risk group): 1.09 fold
- average expression increase of the bad genes from baseline to post-bortezomib ([1]; low-risk group): 1.07 fold
- Mean log2 Expression Change ([1]; probeset 226399_at (no gene symbol)): 0.09
- Mean log2 Expression Change ([1]; probeset 227524_at (no gene symbol)): −0.17
- Mean log2 Expression Change ([1]; probeset 229388_at (no gene symbol)): 0.22
- Mean log2 Expression Change ([1]; probeset 236986_at (no gene symbol)): −0.13
- Mean log2 Expression Change ([1]; probeset 239082_at (no gene symbol)): −0.11
- Mean log2 Expression Change ([1]; probeset 239343_at (chr12q23.3, no gene symbol)): 0.19
- Mean log2 Expression Change ([1]; probeset 1561060_at (no gene symbol)): −0.27
- proteasome gene expression change after short-term exposure (proteasome genes): hyper-activation of proteasome genes
